We go through 36 molecules from patent US20260008758A1, “LINEAR DIPEPTIDYL PEPTIDASE 1 INHIBITORS AND USES THEREOF” (Insmed Incorporated, priority 2024, published 2026).

The structures appear in SMILES notation.

Assay [1] has as its target DPP1 in HL-60 cells (Homo sapiens (Human), UniProt P53634). The experiment in a line: DPP1 cell single-point percent inhibition testing (HL-60 cells, H-Gly-Phe-AFC substrate). The assay is classed as cell-based. Conditions: read-out: DPP1 cell % inhibition @ 5 nM, 5 nM compound, 100 μM H-Gly-Phe-AFC, 60 min pre-incubation at 37° C. On the procedure:
HL-60 cells (ATCC; Manassas, VA) were maintained in RPMI-1640 supplemented with 20% heat-inactivated FBS and 1× Antibiotic Antimycotic (Cytiva; Marlborough, MA). Media was changed every three to four days and cells were not allowed to exceed 1×10^6 cells per mL. Prior to assay, cells were collected by centrifugation at 500 rcf for 3 minutes, resuspended in RPMI (with no additional supplements) and counted. Cells were diluted in RPMI to a concentration of 5×10^5 live cells per mL and transferred to black 96-well plates for assay, 60 μL per well. Test articles were diluted to 25 nM in RPMI plus 0.5% DMSO, and 20 μL was added to each assay well. Compound was allowed to pre-incubate with cells with gentle shaking at 100 rpm for 60 minutes at 37° C. in a cell culture incubator maintained at 5% CO2, after which 20 μL of 500 μM H-Gly-Phe-AFC cell-permeable substrate (MP Biomedicals; Solon, OH) in RPMI was added to each well, giving final compound concentration of 5 nM, a final substrate concentration of 100 μM and a final DMSO concentration of 0.1%. Plates were returned to the incubator with shaking at 100 rpm for 30 minutes, after which fluorescence was measured at Excitation/Emission 400/505 nm. Percent Inhibition was calculated from RFU values by first subtracting background values (wells in which RPMI was substituted for cells) from each well, and then subtracting background-subtracted RFU derived from wells that received a final concentration of 10 μM brensocatib. This value represents the non-specific substrate cleavage from the HL-60 cells, and the remaining RFU should theoretically be solely the contribution of DPP1 enzyme activity. The final percent inhibition value was calculated for each test article based on remaining RFU compared to RFU from wells that received only vehicle control.

Assay [2] deals with human DPP1 enzyme (Homo sapiens (Human), UniProt P53634). Put plainly: Human DPP1 enzyme single-point percent inhibition testing (HL-60 lysate, H-Gly-Arg-AMC substrate). The assay is classed as biochemical. Conditions: read-out: human DPP1 enzyme % inhibition @ 10 nM, 10 nM compound, 400 μM H-Gly-Arg-AMC, 10 min pre-incubation at 37° C. On the procedure:
A crude lysate of HL-60 cells (ATCC; Manassas, VA) was used as a source of human DPP1 enzyme in the assay. Lysate was prepared in 1% Triton X-100 in PBS at a concentration of 20,000 live cells per […] of lysis buffer and was centrifuged at 16,000 rcf for 10 minutes at 4° C., after which supernatant was collected and flash-frozen in liquid nitrogen. Test articles were applied to human DPP1 enzyme in Assay Buffer (25 mM MES pH 6.0, 50 mM NaCl, 5 mM DTT) in a total reaction volume of 125 μL. 25 μL of compound diluted to 50 nM in Assay Buffer plus 5% DMSO was first added to 50 μL of HL-60 lysate diluted to contain a DPP1 enzyme concentration of roughly 1 ng/μL and allowed to pre-incubate for 10 minutes at 37° C. after which 50 μL of 1000 μM H-Gly-Arg-AMC substrate (Bachem; St. Torrance, CA) was added, giving final compound concentration of 10 nM, a final substrate concentration of 400 μM and a final DMSO concentration of 1%. Substrate cleavage was measured for 90 minutes at 37° C., with fluorescence at Excitation/Emission 350/450 nm measured every 5 minutes. DPP1 concentration was interpolated based on its activity relative to a standard curve of activated human recombinant DPP1 enzyme. Percent inhibition at 10 nM was calculated for each test article based on remaining DPP1 activity compared to enzyme activity in wells that received only vehicle control.

Sequence of human DPP1 enzyme (P53634 25-134): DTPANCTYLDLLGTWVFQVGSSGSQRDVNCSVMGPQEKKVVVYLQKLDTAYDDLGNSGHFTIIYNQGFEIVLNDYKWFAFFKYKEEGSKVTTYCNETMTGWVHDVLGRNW
Sequence of human DPP1 enzyme (P53634 231-394): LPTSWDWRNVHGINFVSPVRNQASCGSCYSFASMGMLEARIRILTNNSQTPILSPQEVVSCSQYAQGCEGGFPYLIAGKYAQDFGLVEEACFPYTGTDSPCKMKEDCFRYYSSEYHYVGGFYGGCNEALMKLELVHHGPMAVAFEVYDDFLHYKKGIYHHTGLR
Sequence of human DPP1 enzyme (P53634 395-463): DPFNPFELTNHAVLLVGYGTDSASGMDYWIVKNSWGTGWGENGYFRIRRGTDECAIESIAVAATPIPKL
Sequence of DPP1 in HL-60 cells (P53634 25-134): as the sequence (P53634 25-134) above
Sequence of DPP1 in HL-60 cells (P53634 231-394): as the sequence (P53634 231-394) above
Sequence of DPP1 in HL-60 cells (P53634 395-463): as the sequence (P53634 395-463) above

One may read the inhibition as the drop in the measured response relative to a control, in per cent. For `CN(C)C[C@H](O)C(=O)N[C@H](C#N)Cc1ccc(-c2ccc3c(n2)CCCN3)cc1` [Compound 354], in assay [1], the inhibition at 0.005 µM is not above 76.5%. Besides, the inhibition at 0.01 µM in assay [2] was not above 40%.
Regarding `CN(C)C[C@H](O)C(=O)N[C@H](C#N)Cc1ccc(-c2cnc3c(n2)CCCC3)cc1F` [Compound 376], the inhibition at 0.005 µM in assay [1] was not above 76.5%. In addition, the inhibition at 0.01 µM in assay [2] is not above 40%.
In the same order, the values of `CN(C)CCn1c(=O)oc2ccc(-c3ccc(C[C@@H](C#N)NC(=O)[C@@](C)(O)CN(C)C)c(F)c3)cc21` [Compound 399] are not below 93.9% and not below 66.7%.
The corresponding values for `CO[C@@H](CN(C)C)C(=O)N[C@H](C#N)Cc1ccc(-c2ccc(CN3CCN(C)CC3)cc2)cc1F` [Compound 323] are 76.5 to 93.9% and not above 40%.
As for `CN(C)C[C@H](O)C(=O)N[C@H](C#N)Cc1ccc(-c2ccc3cnn(C)c3c2)cc1` [Compound 370], in assay [1], the inhibition at 0.005 µM was not above 76.5%. The inhibition at 0.01 µM in assay [2] was not above 40%.
The corresponding values for `Cc1cn2cc(-c3ccc(C[C@@H](C#N)NC(=O)[C@@H](O)CN(C)C)c(F)c3)cc2c(C)n1` [Compound 358] are not above 76.5% and not above 40%.
Regarding `CO[C@@H](CN(C)C)C(=O)N[C@H](C#N)Cc1ccc(-c2ccc3c(c2)C2(CC3)CCN(C)CC2)cc1F` [Compound 313], in assay [1], the inhibition at 0.005 µM was not above 76.5%. In addition, the inhibition at 0.01 µM in assay [2] is not below 66.7%.
As to `CN(C)C[C@](C)(O)C(=O)N[C@H](C#N)Cc1ccc(-c2ccc3oc(=O)n(CCN4CCOCC4)c3c2)cc1F` [Compound 406], the inhibition at 0.005 µM in assay [1] lay in the range of 76.5 to 93.9%. Also, the inhibition at 0.01 µM in assay [2] is not below 66.7%.
With `CO[C@@H](CN(C)C)C(=O)N[C@H](C#N)Cc1ccc(-c2ccc3c(c2)C2(CCCN(C)C2)C(=O)N3C)cc1` (stereo partly drawn) [Compound 301], the inhibition at 0.005 µM in assay [1] lay in the range of 76.5 to 93.9%. Besides, in assay [2], the inhibition at 0.01 µM was not above 40%.
As to `CO[C@@H](CN(C)C)C(=O)N[C@H](C#N)Cc1ccc(-c2ccc3nnn(C)c3c2)cc1` [Compound 329], the inhibition at 0.005 µM in assay [1] was not above 76.5%. Besides, in assay [2], the inhibition at 0.01 µM was not above 40%.
In the same order, the values of `CN(C)C[C@](C)(O)C(=O)N[C@H](C#N)Cc1ccc(-c2ccc(S(=O)(=O)N3CCC3)cc2)cc1` [Compound 415] are not above 76.5% and not above 40%.
In the same order, the values of `CO[C@@H](CN(C)C)C(=O)N[C@H](C#N)Cc1ccc(-c2cnc3c(n2)CCCC3)cc1F` [Compound 334] are not above 76.5% and not above 40%.
`CN(C)C[C@](C)(O)C(=O)N[C@H](C#N)Cc1ccc(-c2ccc3nnn(C)c3c2)cc1F` [Compound 417]: the inhibition at 0.005 µM in assay [1] fell in the range of 76.5 to 93.9%. The inhibition at 0.01 µM in assay [2] is not below 66.7%.
The corresponding values for `CN(C)C[C@H](O)C(=O)N[C@H](C#N)Cc1ccc(-c2ccc(CN3CCN(C)CC3)cc2)cc1F` [Compound 365] are not above 76.5% and not above 40%.
The corresponding values for `CO[C@@H](CN(C)C)C(=O)N[C@H](C#N)Cc1ccc(-c2ccc3c(c2)C2(CN(C)C2)OC3=O)cc1` [Compound 304] are not above 76.5% and not above 40%.
In the same order, the values of `COCCN(C)CCn1c(=O)oc2ccc(-c3ccc(C[C@@H](C#N)NC(=O)[C@@H](O)CN(C)C)c(F)c3)cc21` [Compound 368] are not above 76.5% and not below 66.7%.
`CO[C@@H](CN(C)C)C(=O)N[C@H](C#N)Cc1ccc(-c2cnc3c(n2)CCCC3)cc1` [Compound 330]: the inhibition at 0.005 µM in assay [1] is not above 76.5%. Also, the inhibition at 0.01 µM in assay [2] is not above 40%.
Take `CN(C)C[C@H](O)C(=O)N[C@H](C#N)Cc1ccc(-c2ccc3oc(=O)n(C)c3c2)cc1F` [Compound 366]: the inhibition at 0.005 µM in assay [1] was 76.5 to 93.9%. The inhibition at 0.01 µM in assay [2] is 40 to 66.7%.
The corresponding values for `CN(C)C[C@](C)(O)C(=O)N[C@H](C#N)Cc1ccc(-c2ccc3oc(=O)n(C)c3c2)cc1` [Compound 395] are 76.5 to 93.9% and not below 66.7%.
In the case of `CN(C)C[C@H](O)C(=O)NC(C#N)Cc1cc2c(cc1F)-c1ccc3oc(=O)n(C)c3c1CO2` (stereo partly drawn) [Compound 341], the inhibition at 0.005 µM in assay [1] was not above 76.5%. Moreover, the inhibition at 0.01 µM in assay [2] is not above 40%.
In the same order, the values of `CO[C@@H](CN(C)C)C(=O)N[C@H](C#N)Cc1ccc(-c2ccc3oc(=O)n(CCN4CCOCC4)c3c2)cc1F` [Compound 322] are not above 76.5% and 40 to 66.7%.
In the same order, the values of `CN(C)C[C@H](O)C(=O)N[C@H](C#N)Cc1ccc(-c2ccc3c(c2)C2(CCN(C4COC4)CC2)OC3)cc1F` [Compound 363] are not above 76.5% and 40 to 66.7%.
The corresponding values for `CN(C)C[C@H](O)C(=O)N[C@H](C#N)Cc1cc2c(cc1F)-c1ccc(F)cc1CO2` [Compound 378] are not above 76.5% and not above 40%.
Turning to `CO[C@@H](CN(C)C)C(=O)N[C@H](C#N)Cc1ccc(-c2ccc3oc(=O)n(CCN(C)C)c3c2)cc1F` [Compound 315], in assay [1], the inhibition at 0.005 µM was not above 76.5%. In assay [2], the inhibition at 0.01 µM is not below 66.7%.
In the case of `CN(C)C[C@H](O)C(=O)N[C@H](C#N)Cc1ccc(-c2ccc3oc(=O)n(C)c3c2)cc1` [Compound 353], the inhibition at 0.005 µM in assay [1] was 76.5 to 93.9%. Besides, the inhibition at 0.01 µM in assay [2] was in the range of 40 to 66.7%.
As for `CN(C)C[C@](C)(O)C(=O)N[C@H](C#N)Cc1ccc(-c2ccc3c(c2)C2(CC3)CCN(C)CC2)cc1F` [Compound 397], in assay [1], the inhibition at 0.005 µM is not above 76.5%. Further, in assay [2], the inhibition at 0.01 µM is not below 66.7%.
The corresponding values for `CCN1C(=O)Cc2ccc(-c3ccc(C[C@@H](C#N)NC(=O)[C@H](CN(C)C)OC)cc3)cc21` [Compound 305] are not above 76.5% and not above 40%.
The corresponding values for `CN(C)C[C@](C)(O)C(=O)N[C@H](C#N)Cc1ccc(-c2ccc3cnn(C)c3c2)cc1F` [Compound 416] are 76.5 to 93.9% and 40 to 66.7%.
In the case of `CCN1C(=O)Cc2ccc(-c3ccc(C[C@@H](C#N)NC(=O)[C@H](CN(C)C)OC)c(F)c3)cc21` [Compound 318], in assay [1], the inhibition at 0.005 µM was 76.5 to 93.9%. Besides, in assay [2], the inhibition at 0.01 µM lay within 40 to 66.7%.
For the molecule `CO[C@@H](CN(C)C)C(=O)NC(C#N)Cc1cc2c(cc1F)-c1cc(C#N)ccc1CO2` (stereo partly drawn) [Compound 298], the inhibition at 0.005 µM in assay [1] was not above 76.5%. Also, the inhibition at 0.01 µM in assay [2] was not above 40%.
For the molecule `CCN1C(=O)Cc2ccc(-c3ccc(C[C@@H](C#N)NC(=O)[C@@H](O)CN(C)C)c(F)c3)cc21` [Compound 360], in assay [1], the inhibition at 0.005 µM was in the range of 76.5 to 93.9%. Moreover, the inhibition at 0.01 µM in assay [2] fell in the range of 40 to 66.7%.
In the same order, the values of `CN(C)C[C@](C)(O)C(=O)N[C@H](C#N)Cc1ccc(-c2ccc(CN3CCN(C)CC3)cc2)cc1` [Compound 394] are 76.5 to 93.9% and not above 40%.
In the same order, the values of `CCN1C(=O)Cc2ccc(-c3ccc(C[C@@H](C#N)NC(=O)[C@@](C)(O)CN(C)C)c(F)c3)cc21` [Compound 402] are 76.5 to 93.9% and not below 66.7%.
In the same order, the values of `CN(C)C[C@](C)(O)C(=O)N[C@H](C#N)Cc1ccc(-c2ccc3c(n2)CCCN3)cc1` [Compound 396] are not above 76.5% and not above 40%.
For `CN(C)C[C@H](O)C(=O)N[C@H](C#N)Cc1ccc(-c2ccc3c(c2)C2(CN(C)C2)OC3=O)cc1` [Compound 346], in assay [1], the inhibition at 0.005 µM was not above 76.5%. Further, the inhibition at 0.01 µM in assay [2] fell in the range of 40 to 66.7%.
The corresponding values for `CN(C)C[C@H](O)C(=O)N[C@H](C#N)Cc1ccc(-c2ccc3cnn(C4CCN(C)CC4)c3c2)cc1` [Compound 349] are not above 76.5% and 40 to 66.7%.
